# Results from ChEMBL document CHEMBL2406913, “First synthesis and biological evaluation of 4-amino-2-aryl-6,9-dichlorobenzo[g]pteridines as inhibitors of TNF-α and IL-6” (Eur J Med Chem, 2013).
# Legend:
# HL-60 [1] = experiment: Cytotoxicity against human HL-60 derived macrophage-like cells at 50 uM after 1 hr by MTT assay; type: cell-based; settings: hl-60, 1 h
# HL-60 [2] = experiment: Antiinflammatory activity in human HL-60 derived macrophage-like cells assessed as inhibition of LPS-induced IL-6 production treated 30 mins before LPS stimulation measured after 24 hrs by ELISA; type: functional, cell-based
# HL-60 [3] = experiment: Antiinflammatory activity in human HL-60 derived macrophage-like cells assessed as inhibition of LPS-induced IL-6 production at 50 uM treated 30 mins before LPS stimulation measured after 24 hrs by ELISA; type: functional
# HL-60 [4] = experiment: Antiinflammatory activity in human HL-60 derived macrophage-like cells assessed as inhibition of LPS-induced TNFalpha production treated 30 mins before LPS stimulation measured after 24 hrs by ELISA; type: functional, cell-based
# HL-60 [5] = experiment: Antiinflammatory activity in human HL-60 derived macrophage-like cells assessed as inhibition of LPS-induced TNFalpha production at 50 uM treated 30 mins before LPS stimulation measured after 24 hrs by ELISA; type: functional
IC50 (HL-60 [2]) [µM],IC50 (HL-60 [4]) [µM],Compound,Activity (HL-60 [1]) [%],inhibition at 50 µM (HL-60 [3]) [%],inhibition at 50 µM (HL-60 [5]) [%]
22.9,7.3,Nc1nc(-c2cc(C(F)(F)F)cc(C(F)(F)F)c2)nc2nc3c(Cl)ccc(Cl)c3nc12,0,100,99.7
25.7,36.2,Nc1ccc(-c2nc(N)c3nc4c(Cl)ccc(Cl)c4nc3n2)cc1,15.7,85.1,63.2
26.5,5.8,Cc1ccc(-c2nc(N)c3nc4c(Cl)ccc(Cl)c4nc3n2)cc1F,1.8,93,80
35.4,8.7,Nc1nc(-c2ccc(C(F)(F)F)cc2)nc2nc3c(Cl)ccc(Cl)c3nc12,0,83,67.2
25.2,7.4,Cc1ccc(-c2nc(N)c3nc4c(Cl)ccc(Cl)c4nc3n2)cc1,3.9,95.4,87.4
46.9,–,Nc1nc(-c2ccc(Cl)cc2)nc2nc3c(Cl)ccc(Cl)c3nc12,2.5,54.3,6.7
34.4,35.9,Nc1nc(-c2ccccc2)nc2nc3c(Cl)ccc(Cl)c3nc12,13,73.8,75.2
25.7,6,Cc1cccc(-c2nc(N)c3nc4c(Cl)ccc(Cl)c4nc3n2)c1,0.2,95.1,100
–,–,Nc1nc(-c2cccc([N+](=O)[O-])c2)nc2nc3c(Cl)ccc(Cl)c3nc12,1.5,41.3,0

Compound,IC50 (HL-60 [2]) [µM],IC50 (HL-60 [4]) [µM],Activity (HL-60 [1]) [%],inhibition at 50 µM (HL-60 [3]) [%],inhibition at 50 µM (HL-60 [5]) [%]
C[S+]([O-])c1ccc(-c2nc(-c3ccncc3)c(-c3ccc(F)cc3)[nH]2)cc1 (stereo unspecified) [SB-203580],–,8.6,0,8.4,68.1
